Tested on: Candida species
Assay: Expected efficacy of antifungal agents
Format: cell-based

## C[C@@H]1[C@H](O)[C@@H](C)/C=C/C=C/CC/C=C/C=C/C=C/C=C/C(O[C@H]2O[C@H](C)[C@@H](O)[C@H](N)[C@@H]2O)CC2O[C@](O)(CC(O)C(O)CCC(O)CC(O)CC(O)CC(=O)O[C@H]1C)CC(O)C2C(=O)O (stereo partly shown) [Nystatin]
  efficacy against Candida species: yes
